Assay results: US20080280810A1, “PEPTIDES HAVING AFFINITY FOR BODY SURFACES” (priority 2006, published 2008)

Assay: Co-application of multi-block peptide with semi-permanent dye (Arianor Ebony), color retention
Set-up: species or system human; key: ΔE of peptide sample minus peptide-free control; larger = better retention
Conditions: difference in Delta E between peptide sample and peptide free control after 3 embrocation cycles (about 12 manual shampoos); pH 8.5-9.0; >2 benefit, >4 substantial benefit
Experimental: A 0.5% aqueous solution of Arianor Ebony (Sensient Technologies Corp, Milwaukee, Wis.) containing 3% benzyl alcohol and 0.05% diazolidinyl urea (biocide) was prepared. Dye insolubles were removed by filtration and the pH of the dye solution was adjusted to 8.50-9.0, using ethanolamine.
Approximately 1 mL of the dye solution was added to selected wells of a 24-well plate (Thomson Instrument Co., Oceanside, Calif.; part # 931565). A multi-block peptide (see Table 12) was dissolved in a solution consisting of 3 wt % benzyl alcohol and 95 wt % water to yield a peptide concentration of 2 wt % or approximately 20 mg/mL. The pH was adjusted to 8.5-9.0 using ethanolamine. The peptide solution was then pipetted into test wells containing dye solution in the amount of 1 mL or 0.2 mL respectively. The total volume in each test well was then adjusted to 2 mL where necessary using 3% aqueous benzyl alcohol (pH adjusted to 8.5-9.0 with ethanolamine). Peptide free controls consisted of 1 mL of dye solution diluted to 2 mL with the pH adjusted aqueous benzyl alcohol solution.
Baseline […] readings were made on one inch long tresses (see below) using an X-RITE® SP78™ Sphere Spectrophotometer (X-Rite, Inc., Grandville, Mich.), by placing the hair tress into the photosensor and calculating L*, a* and b* parameters representing the photometer response. All measurements were the average of three individual determinations.
The tresses (potted on one end with resin) of natural white, 85% gray or regular bleached hair (International Hair Importers and Products, Bellerose, N.Y.) were immersed in the peptide/dye solution and the entire well plate was agitated on a VORTEX-GENIE® 2 Mixer (Scientific Industries, Bohemia, N.Y.) at a speed setting of 1 for 30 minutes. The tresses were removed from the wells, rinsed for 30 seconds under flowing deionized water and then air dried.
The following complement of beads was then added to each well containing a hair tress: (8 beads in all; 4 Novagen Coli Rollers Plating Beads—sterilized (EMD Biosciences, San Diego, Calif.; Catalog No. 71013), 2 BioSpec 6.35 mm glass beads (BioSpec Products, Bartlesville, Okla.; Catalog No. 11079635), and 2 BioSpec 3.2 mm Stainless Steel Bead (Catalog No. 11079132ss).
Then 2.5 mL of aqueous 50% Pantene Pro V® shampoo (Proctor & Gamble Co., Cincinnati, Ohio) was pipetted into each well. The plate was placed on a VWR® VX-2500 Multi-tube Vortexer (VWR, West Chester, Pa.) for 5 minutes to simulate shampooing with embrocation. The hair tresses were then rinsed under flowing deionized water and air dried. This cycle was repeated two more times except that the length of time was 10 minutes for both subsequent embrocation cycles. (This treatment was previously determined to simulate approximately 12 manual shampoo cycles.) At the conclusion of the third embrocation cycle L*, a* and b* values were measured and Delta E values (ΔE) were calculated using equation 1 below:
where L*=the lightness variable and a* and b* are the chromaticity coordinates of CIELAB colorspace as defined by the International Commission of Illumination (CIE) (Minolta, Precise Color Communication—Color Control From Feeling to Instrumentation, Minolta Camera Co., 1996).
The Delta E value (ΔE) indicates color retention relative to the non-dyed hair and larger Delta E values indicate better performance. Values listed in the table represent the difference in Delta E values between the peptide-containing sample and the peptide free control. This difference is indicative of color retention after shampoo or water rinse treatments and positive values indicate better performance relative to the peptide free controls (Table 12).

Substance | ΔE Retention Ebony Dye Regular Bleached Hair | ΔE Retention Ebony dye with Natural White Hair
P-EQISGSLVAAPW-KRKRK-D (PEQISGSLVAAPWKRKRKD; Peptide having affinity for hair) [HC 74] | 0.1 | 8.5
P-TPPELLHGAPRS-KRKRK-D (PTPPELLHGAPRSKRKRKD; Peptide having affinity for hair) [HC 71] | 1.9 | 5.2
